Reference: patent publication US6680344B1, “Method of treating hair loss using diphenylmethane derivatives” (The University of Texas Southwestern Medical Center, priority 1999, dated 2004)

Tested on: heart/body weight ratio of male Sprague Dawley rats
Test: Cardiotoxicity assay (heart-to-body weight ratio)
Type: in vivo, rat
Conditions: 250 μg/kg subcutaneously once daily for 28 days, cardiac-sparing where C is less than 1.3
Excerpt: The cardiotoxicity assay measures the potential of a test compound to adversely affect the cardiovascular system. As thyroid hormone (T3) damages the cardiovascular system, the heart enlarges. See, e.g., Gomberg-Maitland et al., “Thyroid hormone and Cardiovascular Disease”, American Heart Journal, Vol. 135(2), pp. 187-196 (1998); Klein and Ojamaa, “Thyroid Hormone and the Cardiovascular System”, Current Opinion in Endocrinology and Diabetes, Vol. 4, pp.341-346 (1997); and Klemperer et al., “Thyroid Hormone Therapy and Cardiovascular Disease”, Progress in Cardiovascular Diseases, Vol. 37 (4), pp. 329-336 (1996). This increases the weight of the heart relative to whole body weight. The cardiotoxicity assay herein below is used to test compounds for potentially adverse cardiac effects by measuring their effect on the heart-to-body weight ratio.
Two groups each of six male Sprague Dawley rats (Harlan Sprague Dawley, Inc., Indianapolis, Ind.) (each weighing from approximately 220 grams to 235 grams) are utilized. The first group is a vehicle control group and the second group is a test compound group. The length of the assay is 30 days, with treatment of vehicle or test compound in vehicle daily for 28 of those days as described below.
Prior to initiation of the assay, each rat is allowed to acclimate to standard environmental conditions for 5 days. […]

N[C@@H](Cc1cc(I)c(Oc2cc(I)c(O)c(I)c2)c(I)c1)C(=O)O [T4, thyroxine]
cardiac-sparing classification (index C = RT/RV, heart/body ratio of test compound group over vehicle control group): not cardiac-sparing
